The values below are quoted from earlier work in patent US20140004176A1, “DELIVERY OF TREATMENTS TRANSDERMALLY FOR FUNGAL INFECTIONS AND OTHER INDICATIONS” (Strategic Science & Techologies, priority 2010, published 2014).

Take `C[C@@H](c1ncncc1F)[C@](O)(Cn1cncn1)c1ccc(F)cc1F` [voriconazole]: the pKa (as a rule, the negative logarithm of the acid dissociation constant) is listed as 1.76.
